One test deals with BTK (Homo sapiens, UniProt Q06187). The experiment in a line: Intracellular BTK engagement NanoBRET, intact HEK293A cells. The class given is cell-based. To be noted: 2 h, read-out: IC50 BTK target engagement. As for the experimental part:
Thus, HEK293A cells were batch-transfected by adding 1 μg pLenti6 BTK-Nanoluc vector and 9 μg Transfection Carrier DNA (pcDNA3.1 Hygro+) to 1 mL of Opti-MEM without phenol red (Thermo Fisher). After addition of 40 μL ViaFect (Promega) and incubation for 20 min, the DNA:lipid mixture was added to trypsinized HEK293A cells suspended at 2 × 10^5/mL in 10 ml growth medium. 100 μL of the resulting cell:DNA:lipid suspension was then seeded at 2 × 10^4 cells/well into white, clear-bottom 96-well plates (Costar) that were pre-coated with poly-D-Lysine by incubation for 60 min with 30 μL of a sterile-filtered solution of 0.1 mg PDL (Mpbio) dissolved in phosphate-buffered saline, followed by a wash with 200 μL sterile phosphate-buffered and airdrying. […] To measure BRET, NanoBRET NanoGlo substrate (Promega, final dilution of 1:1000) and Extracellular NanoLuc Inhibitor (Promega, final concentration 20 μM) were added, followed by quantification of donor and acceptor luminescence emission on a Pherastar FX (BMG Labtech) multimode reader using 460 nm band-pass and 610 nm long-pass filters, respectively. […]
The mBU values for each treated sample was then divided by the average mBU value determined based on four DMSO-treated vehicle control samples and multiplied by 100 to arrive at % of vehicle-treated control. […]

For the next test, the target named is T1, DCAF1(WDR) + BTK (Homo sapiens, UniProt Q06187+Q9Y4B6, E1398S).
T1 construct: BTK (389-659) or BRD9; His6 (C); His (PreScission site) (N); made in house; host or cells: Sf9 insect cells (both chains)
The experiment in a line: SPR ternary binding assay, immobilized DCAF1(WDR), BTK (389-659) in buffer. To be noted: Fig. 6b. The source says: Supplementary figure 8. SPR data of binary and ternary DCAF1-BTK PROTACs
without additional BTK as analytes. […] In
the middle panel the steady state fit responses are blotted against the PROTAC concentrations The
(§1) Source data are provided as a Source Data file

The target in the next test is T2, BTK kinase domain (Homo sapiens, UniProt Q06187).
T2 construct: BTK kinase domain was mixed in assay buffer
The experiment in a line: BTK EPK assay (enzymatic inhibition). The class given is biochemical. As for the experimental part:
BTK kinase domain was mixed in assay buffer containing 50 mM HEPES pH 7.5, 0.02% Tween20, 0.02 % bovine serum albumin, 1 mM DTT, 0.01 mM Na3VO4, 10 mM b-Glycerolphosphate, 18 mM MgCl2, 1 mM MnCl2 to a 2× concentration of 8 nM. This solution was added to pre-dispensed compound dilution series in black, 384 well -low dead volume plates (Greiner) and the reaction was initiated by the addition of ATP and a BTK consensus peptide (Sequence: 5-Fluo-Ahx-[…]-Nle-P-Nle-NAND-NH2) to a final assay concentrations of 0.047 mM and 0.002 mM, respectively in assay buffer. The reaction was stopped after 60 min at 32 °C by addition of the same volume of spot solution containing 100 mM HEPES pH 7.5, 5% DMSO, 10 mM EDTA, 0.015% Brij 35. Stopped reactions were analyzed on a Caliper LC3000, which was treated with the commercially available coating reagents CR−3 and CR-8 as instructed by the manufacturer. The relative intensities of phosphorylated peptide were calculated. Data was normalized to control wells containing 100 mM EDTA solution instead of the 2× kinase solutions (0%) and DMSO-only control wells (100%). Normalized data was fitted using a sigmoidal fit.

Test [1] deals with TMD8 WT and TMD8 CRBN resist. cells. The experiment in a line: CellTiter-Glo viability, TMD8 WT vs CRBN resist. cells. As to conditions: CellTiter-Glo proliferation. The class given is cell-based, human. As for the experimental part:
TMD8 cells were grown in the presence of a CRBN-BTK PROTAC CBt using a gradual dose increase. Start treatment was 0.1 nM for 6 weeks, followed by 3 weeks at 0.4 nM and another 4 weeks at 10 nM to finally obtain CBt resistant TMD8 cells (TMD8 CRBN resist.).
d) Viability measured by cell titer-Glo for DBt-10 (green) vs (13) (purple) in WT (solid) vs CRBN resist.
(dotted) TMD8 cells. Data represents average ± standard deviation from n=3 replicates.
e) Repeat of the viability measured by cell titer-Glo for DBt-10 (green) vs (13) (purple) in WT (solid) vs
CRBN resist. (dotted) TMD8 cells with adjusted dose response range. Data represents average ±
standard deviation from n=3 replicates.
as §1
(ATP-based viability assays read luminescence as a measure of living cells.)

Sequence of BTK (Q06187 2-659 limits assumed): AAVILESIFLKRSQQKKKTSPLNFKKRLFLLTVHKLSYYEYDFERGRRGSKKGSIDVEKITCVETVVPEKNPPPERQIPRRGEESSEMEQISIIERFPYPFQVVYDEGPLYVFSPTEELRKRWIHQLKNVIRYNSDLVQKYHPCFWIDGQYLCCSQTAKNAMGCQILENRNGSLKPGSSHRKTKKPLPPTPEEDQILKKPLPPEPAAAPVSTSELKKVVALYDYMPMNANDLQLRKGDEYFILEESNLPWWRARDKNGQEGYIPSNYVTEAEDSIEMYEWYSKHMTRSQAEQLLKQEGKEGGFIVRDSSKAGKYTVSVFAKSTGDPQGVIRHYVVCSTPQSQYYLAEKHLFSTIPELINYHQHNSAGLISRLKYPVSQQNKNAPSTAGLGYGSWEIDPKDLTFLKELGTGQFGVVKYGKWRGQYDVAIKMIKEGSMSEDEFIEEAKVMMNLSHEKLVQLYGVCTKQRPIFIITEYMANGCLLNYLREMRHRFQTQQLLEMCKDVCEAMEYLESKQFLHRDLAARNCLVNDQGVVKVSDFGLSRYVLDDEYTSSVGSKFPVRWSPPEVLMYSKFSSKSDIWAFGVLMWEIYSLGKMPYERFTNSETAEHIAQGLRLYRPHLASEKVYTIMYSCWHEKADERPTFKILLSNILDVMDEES
T1 sequence (Q9Y4B6 1073-1399 E1398S): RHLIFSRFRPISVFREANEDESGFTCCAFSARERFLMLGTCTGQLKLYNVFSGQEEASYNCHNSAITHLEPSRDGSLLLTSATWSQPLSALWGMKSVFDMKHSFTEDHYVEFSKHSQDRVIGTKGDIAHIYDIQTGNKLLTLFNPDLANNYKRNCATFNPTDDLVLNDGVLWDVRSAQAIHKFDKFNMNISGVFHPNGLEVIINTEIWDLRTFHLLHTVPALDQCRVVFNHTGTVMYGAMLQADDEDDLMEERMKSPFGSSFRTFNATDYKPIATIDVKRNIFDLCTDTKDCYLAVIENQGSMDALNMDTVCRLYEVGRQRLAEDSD
T1 sequence (Q06187 389-659): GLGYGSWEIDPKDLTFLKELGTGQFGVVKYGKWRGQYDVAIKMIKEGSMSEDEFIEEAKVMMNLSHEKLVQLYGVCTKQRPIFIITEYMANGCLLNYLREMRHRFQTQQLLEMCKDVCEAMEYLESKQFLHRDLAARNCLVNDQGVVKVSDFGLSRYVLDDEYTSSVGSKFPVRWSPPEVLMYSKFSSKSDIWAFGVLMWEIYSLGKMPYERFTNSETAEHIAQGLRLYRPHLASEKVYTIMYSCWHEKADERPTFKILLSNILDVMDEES
T2 sequence (Q06187 402-655 limits assumed): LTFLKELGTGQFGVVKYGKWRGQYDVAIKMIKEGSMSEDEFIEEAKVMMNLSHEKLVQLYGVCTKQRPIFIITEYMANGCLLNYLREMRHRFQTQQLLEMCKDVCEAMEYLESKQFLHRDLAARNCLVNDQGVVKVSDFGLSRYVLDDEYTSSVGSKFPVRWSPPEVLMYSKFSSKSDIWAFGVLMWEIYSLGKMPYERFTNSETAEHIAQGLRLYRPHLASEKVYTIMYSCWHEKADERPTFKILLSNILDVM

For orientation: IC50 means the concentration that inhibits the measured activity by half. Usually Kd stands for the equilibrium constant for the complex coming apart. As to `Cc1c(NC(=O)c2ccc(C(C)(C)O)cc2F)cc(F)cc1-c1ncnc2[nH]c(-c3ccc(CNCCOCCOCCOCCOCCOCCOCCOCCOCCOCCOCCOCCOCCC(=O)N4CCN(c5ccc6c(NCCN)nc(C7(c8ccc(Cl)cc8)CCCCC7)nc6c5)CC4)cc3)cc12` [DBt-5], the concentration for half-maximal inhibition (IC50) came to 392 nM on BTK and 62 nM against BTK kinase domain. Further, the Kd on DCAF1(WDR) + BTK was 480 nM.

For `Cc1c(NC(=O)N2CC(O)(CC(C)(C)C)C2)cc(F)cc1-c1ncnc2[nH]c(-c3cnn(CC(=O)N4CCC5(CC4)CN(CCNC(=O)CCCC(=O)N4CCN(c6ccc7c(NCCN)nc(C8(c9ccc(Cl)cc9)CCCCC8)nc7c6)CC4)CCO5)c3)cc12` [DBt-10], the IC50 on BTK is 1680 nM; at BTK kinase domain, 44 nM. In addition, the equilibrium dissociation constant (Kd) on DCAF1(WDR) + BTK turned out to be 33 nM. Also, the “relative potency change between CBt sensitive and resistant TMD8 cells” value in test [1] is “did not show any relative potency differences”.

The values are drawn from PMC10766610, “DCAF1-based PROTACs with activity against clinically validated targets overcoming intrinsic- and acquired-degrader resistance” (Nature Communications, 2024).
